# Where a chain is given by its changes, count along the chain named.
# Columns and labels:
# [1] = target: T1, GFP-Plk4(K41M) in transfected HeLa cells (Homo sapiens, UniProt O00444, K41M); assay: Live-cell confocal/STED imaging of overexpressed Plk4; type: cell-based; settings: 500 nM, live-cell STED, HeLa GFP-Plk4(K41M), N = 5
# T1 construct: expressed in transfected cells; host or cells: HeLa
# T1 sequence (O00444 1-970 K41M): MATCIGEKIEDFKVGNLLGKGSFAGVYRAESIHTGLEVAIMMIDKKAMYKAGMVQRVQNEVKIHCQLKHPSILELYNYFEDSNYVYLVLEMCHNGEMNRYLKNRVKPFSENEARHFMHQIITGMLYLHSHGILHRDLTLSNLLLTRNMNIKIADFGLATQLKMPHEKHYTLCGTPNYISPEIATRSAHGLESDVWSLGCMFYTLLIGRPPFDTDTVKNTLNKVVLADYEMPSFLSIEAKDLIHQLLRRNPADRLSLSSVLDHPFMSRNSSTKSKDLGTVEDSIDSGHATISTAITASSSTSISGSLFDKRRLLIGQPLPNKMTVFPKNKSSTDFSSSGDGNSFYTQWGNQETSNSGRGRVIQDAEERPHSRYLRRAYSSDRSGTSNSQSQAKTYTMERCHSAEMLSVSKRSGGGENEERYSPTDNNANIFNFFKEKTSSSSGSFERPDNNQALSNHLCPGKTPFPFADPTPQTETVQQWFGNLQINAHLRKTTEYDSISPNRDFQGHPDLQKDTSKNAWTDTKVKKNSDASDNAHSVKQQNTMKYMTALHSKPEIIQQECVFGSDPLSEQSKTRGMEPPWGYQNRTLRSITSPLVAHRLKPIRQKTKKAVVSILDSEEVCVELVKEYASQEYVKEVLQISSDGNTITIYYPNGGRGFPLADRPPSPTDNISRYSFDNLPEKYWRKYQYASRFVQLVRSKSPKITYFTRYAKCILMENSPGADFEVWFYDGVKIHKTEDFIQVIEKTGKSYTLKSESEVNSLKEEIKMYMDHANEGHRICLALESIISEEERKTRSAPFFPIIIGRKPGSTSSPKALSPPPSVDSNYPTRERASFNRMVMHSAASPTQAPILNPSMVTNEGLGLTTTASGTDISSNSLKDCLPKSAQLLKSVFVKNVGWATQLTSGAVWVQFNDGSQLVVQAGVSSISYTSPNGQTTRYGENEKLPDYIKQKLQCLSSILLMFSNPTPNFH
# [2] = target: T2, endogenous Plk4 in HeLa cells expressing Centrin1-GFP (Homo sapiens, UniProt O00444); assay: Live- and fixed-cell confocal/STED imaging of endogenous Plk4; type: cell-based; settings: one-step labeling, live cells
# T2 construct: live cell imaging of endogenous Plk4; endogenous in cells; host or cells: HeLa cells stably expressing Centrin1-GFP
# T2 sequence (O00444 1-970): T1 sequence (O00444 1-970 K41M) with M41K
smiles,measurement,setting,value
COc1c(Nc2cc(C)[nH]n2)nc(Sc2ccc(S(=O)(=O)Cc3cccc([N+](=O)[O-])c3F)cc2F)nc1N1CCC(CC(=O)NCCNC(=O)c2ccc(C(=O)O)c(C3=C4C=CC(=N)C=C4[Si](C)(C)c4cc(N)ccc43)c2)CC1 [2d],diameter of the circular SiR595 signal,[1],373 ± 36 nm
same,labeling of endogenous Plk4 in live HeLa cells,[2],failed to observe specific labeling

# From PMC10466336, “Chemical Probe for Imaging of Polo-like Kinase 4 and Centrioles” (JACS Au, 2023)
